Results taken from US20180161314A1, “Methods for Treating Hyperuricemia and Related Diseases” (Ardea Biosciences, Inc., priority 2010, published 2018).

System: healthy adult subjects
Assay: Drug 1 / febuxostat cross-over interaction study in healthy adult subjects (Examples 10-12)
Type: in vivo, human
Conditions: for % serum uric acid change, Mean: drug 1 200 mg qd, febuxostat 40 mg qd; for Absolute sUA reduction from baseline, Intraday peak / Absolute sUA reduction from baseline, Trough / Percent sUA reduction from baseline, Intraday peak / Percent sUA reduction from baseline, Trough: febuxostat 40 mg alone
Text: Study Objectives • To compare the multiple-dose pharmacokinetics of febuxostat in the absence versus presence of drug 1 co-administration. • To compare the multiple-dose pharmacokinetics of drug 1 in the absence versus presence of febuxostat co-administration. • To measure the effects of drug 1 and febuxostat, both alone and in combination, on serum uric acid concentrations and amounts of urate excreted into urine. • To evaluate the safety and tolerability of multiple-doses of drug 1 and febuxostat, both alone or in combination.
The study is a two or three-panel, placebo-controlled (for drug 1), double-blinded (for drug 1 and matched placebo), randomized, cross-over study with up to 54 healthy adult subjects. Each panel consisting of 18 subjects is sequentially enrolled, starting with Panel 1 (200 mg once daily dose of drug 1 or placebo), followed by Panel 2 (400 mg once daily dose of drug 1 or placebo), and followed by optional Panel 3 (100 mg to 600 mg once daily dose of drug 1 or placebo). The placebo control is included in this study to better assess safety and tolerability and the serum urate lowering effect of drug 1 in combination with febuxostat. Serum urate levels may be influenced by frequent blood draws and meal contents; therefore, the true effect on serum urate levels can be determined by correcting for placebo (subtract serum urate effect in placebo subjects from serum urate effect in active subjects).
Subjects in each panel are randomly assigned to one of two treatment sequences (Sequence A or B) after all Baseline (Day −1) procedures have been completed. Each treatment sequence within a panel consists of 9 subjects randomly assigned to receive drug 1 (6 of 9 subjects) or matching placebo (3 of 9 subjects) in a double-blinded fashion. For each treatment sequence, single-agent drug treatment is administered on Days 1 to 7 (either open-label febuxostat or double-blinded drug 1 or matched placebo by random assignment), followed by combination treatment on Days 8 to 14, and completing with the alternative single-agent drug treatment on Days 15 to 21, as follows (Panel 1 shown in FIG. 2):
Sequence A: Days 1-7: Febuxostat, 40 mg (once daily) • Days 8 to 14: drug 1, 200 mg or placebo in combination with febuxostat (once daily) • Days 15-21: drug 1, 200 mg, or placebo (once daily) Sequence B: Days 1-7: drug 1, 200 mg, or placebo (once daily) • Days 8 to 14: drug 1, 200 mg or placebo in combination with febuxostat (once daily) • Days 15-21: Febuxostat, 40 mg (once daily) […]
Serial blood samples for PK and PD assessments are collected up to 24 hours after dosing on Days 7, 14, and 21. Urine (total catch) for assays of drug 1, creatinine, and uric acid are collected starting on Day −1 (pre-treatment baseline) and after dosing on Days 7, 14, and 21. Final safety assessments are completed when subjects return to the clinic at 7±1 days after discharge from the clinic on Day 22 (Follow-Up visit on Day 29). The total volume of blood collected from each subject is approximately 518 mL.
Screening procedures to determine subject eligibility are performed 28 days before the first dose of study drug (Day 1). A total of up to 54 subjects enrolled in up to 3 panels consisting of 2 sequences each, with 9 subjects per sequence (18 subjects per panel). Subjects withdrawing after dosing are not replaced.
Subjects in Panel 1 receive a 200 mg dose of drug 1 or placebo once daily for 14 days and a 40 mg dose of febuxostat once daily for 14 days. Subjects in Panel 2 receive a 400 mg dose of drug 1 or placebo once daily for 14 days and a 40 mg dose of febuxostat once daily for 14 days. Subjects in Panel 3 receive a 100-600 mg dose of drug 1 or placebo once daily for 14 days and a 40 mg dose of febuxostat once daily for 14 days.
Subjects in Sequence A begin dosing on Day 1 with febuxostat and take their first dose of drug 1 or placebo on Day 8. […]

[1] = Week 2, Drug 1 200 mg + febuxostat 40 mg combo

Cc1nc(-c2ccc(OCC(C)C)c(C#N)c2)sc1C(=O)O [Febuxostat, 2-(3-Cyano-4-isobutoxyphenyl)-4-methyl-1,3-thiazole-5-carboxylic acid, reference compound]
serum uric acid change from baseline, daily (Day 1, Drug 1 200 mg, FBX 40 mg): −6.4%
% serum uric acid change, Mean (Day 1): −7.5%
serum uric acid change from baseline, daily (Day 2, Drug 1 200 mg, FBX 40 mg): −25.7%
% serum uric acid change, Mean (Day 2): −23.8%
serum uric acid change from baseline, daily (Day 3, Drug 1 200 mg, FBX 40 mg): −33.6%
% serum uric acid change, Mean (Day 3): −30.5%
serum uric acid change from baseline, daily (Day 4, Drug 1 200 mg, FBX 40 mg): −37.8%
% serum uric acid change, Mean (Day 4): −34.5%
serum uric acid change from baseline, daily (Day 5, Drug 1 200 mg, FBX 40 mg): −37.9%
% serum uric acid change, Mean (Day 5): −34.3%
serum uric acid change from baseline, daily (Day 6, Drug 1 200 mg, FBX 40 mg): −42.6%
% serum uric acid change, Mean (Day 6): −38.1%
serum uric acid change from baseline, daily (Day 7, Drug 1 200 mg, FBX 40 mg): −44.6%
% serum uric acid change, Mean (Day 7): −39.0%
serum uric acid change from baseline, daily (Day 8, Drug 1 200 mg, FBX 40 mg, alone or combined as labelled): −42.7%
% serum uric acid change, Mean (Day 8): −38.9%
serum uric acid change from baseline, daily (Day 9, Drug 1 200 mg, FBX 40 mg, alone or combined as labelled): −38.1%
serum uric acid change from baseline, daily (Day 10, Drug 1 200 mg, FBX 40 mg, alone or combined as labelled): −40%
serum uric acid change from baseline, daily (Day 11, Drug 1 200 mg, FBX 40 mg, alone or combined as labelled): −39.2%
serum uric acid change from baseline, daily (Day 12, Drug 1 200 mg, FBX 40 mg, alone or combined as labelled): −36.9%
serum uric acid change from baseline, daily (Day 13, Drug 1 200 mg, FBX 40 mg, alone or combined as labelled): −36.8%
serum uric acid change from baseline, daily (Day 14, Drug 1 200 mg, FBX 40 mg, alone or combined as labelled): −42%
serum uric acid change from baseline, daily (Day 15, Drug 1 200 mg, FBX 40 mg, alone or combined as labelled): −39.1%
serum uric acid change from baseline, daily (Day 15, FBX 40 mg after combo): −62.3%
serum uric acid change from baseline, daily (Day 16, Drug 1 200 mg alone (week 3), FBX 40 mg alone): −36.5%
serum uric acid change from baseline, daily (Day 16, FBX 40 mg after combo): −50.9%
serum uric acid change from baseline, daily (Day 17, Drug 1 200 mg alone (week 3), FBX 40 mg alone): −35.8%
serum uric acid change from baseline, daily (Day 17, FBX 40 mg after combo): −45.6%
serum uric acid change from baseline, daily (Day 18, Drug 1 200 mg alone (week 3), FBX 40 mg alone): −36.3%
serum uric acid change from baseline, daily (Day 18, FBX 40 mg after combo): −45.7%
serum uric acid change from baseline, daily (Day 19, Drug 1 200 mg alone (week 3), FBX 40 mg alone): −33.6%
serum uric acid change from baseline, daily (Day 19, FBX 40 mg after combo): −41%
serum uric acid change from baseline, daily (Day 20, Drug 1 200 mg alone (week 3), FBX 40 mg alone): −34.3%
serum uric acid change from baseline, daily (Day 20, FBX 40 mg after combo): −42.9%
serum uric acid change from baseline, daily (Day 21, Drug 1 200 mg alone (week 3), FBX 40 mg alone): −37.6%
serum uric acid change from baseline, daily (Day 21, FBX 40 mg after combo): −49.1%
serum uric acid change from baseline, daily (Day 22, Drug 1 200 mg alone (week 3), FBX 40 mg alone): −35.2%
serum uric acid change from baseline, daily (Day 22, FBX 40 mg after combo): −45.7%
Absolute sUA reduction from baseline, Intraday peak (Week 1, Drug 1 200 mg alone): -3.4 mg/dL
Absolute sUA reduction from baseline, Trough (Week 1, Drug 1 200 mg alone): -2.8 mg/dL
Percent sUA reduction from baseline, Intraday peak (Week 1, Drug 1 200 mg alone): −55.3%
Percent sUA reduction from baseline, Trough (Week 1, Drug 1 200 mg alone): −45.4%
Absolute sUA reduction from baseline, Intraday peak [1]: -3.1 mg/dL
Absolute sUA reduction from baseline, Trough [1]: -2.6 mg/dL
Percent sUA reduction from baseline, Intraday peak [1]: −50.1%
Percent sUA reduction from baseline, Trough [1]: −41.2%
Absolute sUA reduction from baseline, Intraday peak (Week 3, Drug 1 200 mg alone): -3.3 mg/dL
Absolute sUA reduction from baseline, Trough (Week 3, Drug 1 200 mg alone): -2.7 mg/dL
Percent sUA reduction from baseline, Intraday peak (Week 3, Drug 1 200 mg alone): −49.0%
Percent sUA reduction from baseline, Trough (Week 3, Drug 1 200 mg alone): −42.1%
